pIC50: −log10 of the molar value.
Legend:
Format in all cases: biochemical
FLT3 = biological target: T1, FLT3 (Homo sapiens, UniProt P36888); experiment: FLT3 inhibition, FRET based Z'-LYTE Kinase Assay; settings: 1 nM FLT3, 940 μM ATP; read-out: IC50 Range Flt3
T1 construct: purchased Invitrogen PV3182
T1 sequence (P36888 27-993): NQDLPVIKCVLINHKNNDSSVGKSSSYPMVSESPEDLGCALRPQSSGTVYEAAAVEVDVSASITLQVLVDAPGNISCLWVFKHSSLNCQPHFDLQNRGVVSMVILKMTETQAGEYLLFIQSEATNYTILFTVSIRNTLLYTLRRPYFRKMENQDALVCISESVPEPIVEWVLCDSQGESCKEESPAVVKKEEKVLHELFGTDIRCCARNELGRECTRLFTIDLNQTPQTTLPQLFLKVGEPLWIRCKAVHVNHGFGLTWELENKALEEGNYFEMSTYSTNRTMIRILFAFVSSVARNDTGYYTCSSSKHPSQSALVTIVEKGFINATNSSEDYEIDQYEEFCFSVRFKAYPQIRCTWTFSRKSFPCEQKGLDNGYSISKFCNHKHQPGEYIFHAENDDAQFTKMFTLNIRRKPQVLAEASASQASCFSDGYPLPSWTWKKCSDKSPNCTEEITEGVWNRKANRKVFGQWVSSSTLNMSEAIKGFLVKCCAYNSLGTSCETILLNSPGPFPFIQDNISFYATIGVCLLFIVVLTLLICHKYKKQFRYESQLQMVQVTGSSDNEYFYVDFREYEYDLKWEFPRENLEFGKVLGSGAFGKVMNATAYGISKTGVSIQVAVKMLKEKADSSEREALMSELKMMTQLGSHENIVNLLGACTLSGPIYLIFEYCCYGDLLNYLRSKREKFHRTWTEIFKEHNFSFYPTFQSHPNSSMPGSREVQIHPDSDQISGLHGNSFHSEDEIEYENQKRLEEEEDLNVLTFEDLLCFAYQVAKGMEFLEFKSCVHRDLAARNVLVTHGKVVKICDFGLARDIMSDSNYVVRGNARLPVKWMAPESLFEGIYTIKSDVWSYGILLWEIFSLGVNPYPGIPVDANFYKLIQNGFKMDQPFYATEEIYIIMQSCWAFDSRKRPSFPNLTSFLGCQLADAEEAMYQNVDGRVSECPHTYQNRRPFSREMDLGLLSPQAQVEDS
Experimental: (§1) FLT3 and LCK compound inhibition were determined using FRET based Z′-LYTE Kinase Assay Kit with Tyrosine 2 peptide as the substrate (Invitrogen cat #PV3191). […] The % inhibition values were determined according to the manufacturer's directions and IC50 values were obtained using a non-linear 4 point logistic curve fit (XLfit4, IDBS).

LCK = biological target: T2, LCK (Homo sapiens, UniProt P06239); experiment: LCK inhibition, FRET based Z'-LYTE Kinase Assay; settings: 25 nM LCK, 180 μM ATP; read-out: IC50 Range Lck
T2 construct: purchased Invitrogen P3043
Experimental: as §1

human HPK1 (MAP4K1) = biological target: T3, human HPK1 (MAP4K1) (Homo sapiens, UniProt Q92918); experiment: HPK1 inhibition assay (indirect ELISA); settings: GST-HPK1 0.6 nM, 12 μM ATP; read-out: IC50 Range HPK1
T3 construct: human HPK1 (aa 1-346); purchased Invitrogen PV6355
T3 sequence (Q92918 1-346): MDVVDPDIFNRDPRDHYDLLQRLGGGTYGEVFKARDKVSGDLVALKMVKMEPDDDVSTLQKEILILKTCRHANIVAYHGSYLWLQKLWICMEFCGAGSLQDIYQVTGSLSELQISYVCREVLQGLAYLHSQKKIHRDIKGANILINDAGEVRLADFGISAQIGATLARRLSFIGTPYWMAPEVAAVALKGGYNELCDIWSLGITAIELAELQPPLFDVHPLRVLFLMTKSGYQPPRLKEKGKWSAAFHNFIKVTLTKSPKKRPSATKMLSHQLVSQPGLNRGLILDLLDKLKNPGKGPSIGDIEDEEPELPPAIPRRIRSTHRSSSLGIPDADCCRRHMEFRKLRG
Experimental: Active HPK1 (MAP4K1) was purchased as an N-terminal GST fusion of human HPK1 (aa 1-346) from Invitrogen (cat #PV6355). HPK1 activity was measured using an indirect ELISA detection system. GST-HPK1 (0.6 nM) was incubated in the presence of 12 μM ATP (Sigma cat #A7699), 5 mM MOPS (pH 7.2), 2.5 mM β-glycerol-phosphate, 5 mM MgCl2, 0.4 mM EDTA, 1 mM EGTA, 0.05 mM DTT, in a 96 well microtitre plate pre-coated with 0.5 μg/well bovine myelin basic protein (MBP) (Millipore, cat #13-110). The reaction was allowed to proceed for 30 min, followed by 5 washes of the plate with Wash Buffer (phosphate buffered saline supplemented with 0.2% Tween 20), and incubation for 30 min with a 1:3000 dilution of anti-phospho-threonine rabbit polyclonal antibody (Cell Signaling cat #9381). The plate was washed 5 times with wash buffer, incubated for 30 min in the presence of goat anti-rabbit horse radish peroxidase conjugate (BioRad cat #1721019, 1:3000 concentration), washed an additional 5 times with wash buffer, and incubated in the presence of TMB substrate (Sigma cat #T0440). The colorimetric reaction was allowed to continue for 5 min, followed by addition of stop solution (0.5 N H2SO4), and quantified by detection at 450 nm with a monochromatic plate reader (Molecular Devices M5).
Compound inhibition was determined at either a fixed concentration (10 μM) or at a variable inhibitor concentration (typically 50 μM to 0.1 μM in a 10 point dose response titration). Compounds were pre-incubated in the presence of enzyme for 15 min prior to addition of ATP and the activity remaining quantified using the above described activity assay. The % inhibition of a compound was determined using the following formula; % inhibition=100×(1−(experimental value−background value)/(high activity control−background value)). The IC50 value was determined using a non-linear 4 point logistic curve fit (XLfit4, IDBS) with the formula; (A+(B/(1+((x/C)^D)))), where A=background value, B=range, C=inflection point, D=curve fit parameter.

T2 sequence (P06239 whole entry, species assumed): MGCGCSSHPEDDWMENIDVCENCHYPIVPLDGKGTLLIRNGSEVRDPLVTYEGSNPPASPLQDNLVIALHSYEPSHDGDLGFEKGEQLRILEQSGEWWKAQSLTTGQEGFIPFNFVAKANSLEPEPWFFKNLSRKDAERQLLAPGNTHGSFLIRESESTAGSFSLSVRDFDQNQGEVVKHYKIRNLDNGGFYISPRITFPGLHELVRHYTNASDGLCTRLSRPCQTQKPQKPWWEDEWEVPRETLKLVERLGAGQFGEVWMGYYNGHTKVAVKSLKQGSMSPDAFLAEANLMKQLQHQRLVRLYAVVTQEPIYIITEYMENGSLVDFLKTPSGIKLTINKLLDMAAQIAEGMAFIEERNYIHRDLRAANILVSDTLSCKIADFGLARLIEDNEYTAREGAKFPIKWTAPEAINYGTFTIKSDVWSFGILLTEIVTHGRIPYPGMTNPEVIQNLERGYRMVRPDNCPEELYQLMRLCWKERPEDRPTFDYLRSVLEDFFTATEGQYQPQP

SMILES	pIC50 (FLT3)	pIC50 (LCK)	pIC50 (human HPK1 (MAP4K1))
CN1CCN(c2ccc3nc(-c4c(N[C@H]5CCNC[C@@H]5F)c5ccsc5[nH]c4=O)[nH]c3c2)CC1 [Example A54, 4-(((3S,4S)-3-fluoropiperidin-4-yl)amino)-5-(6-(4-methylpiperazin-1-yl)-1H-benzo[d]imidazol-2-yl)thieno[2,3-b]pyridin-6(7H)-one]	≥ 7.30	6.30 to 7.30	≥ 7.30
CN1CCN(c2ccc3nc(-c4c(N[C@@H]5CC[C@@H](O)C5)c5ccsc5[nH]c4=O)[nH]c3c2)CC1 (relative stereo) [Example A9, 4-(((1R*,3R*)-3-hydroxycyclopentyl)amino)-5-(6-(4-methylpiperazin-1-yl)-1H-benzo[d]imidazol-2-yl)thieno[2,3-b]pyridin-6(7H)-one]	≥ 7.30	≥ 7.30	≥ 7.30
CN1CCN(c2ccc3nc(-c4c(NCc5ccncc5)c5sccc5[nH]c4=O)[nH]c3c2)CC1 [Example A22, 6-(6-(4-methylpiperazin-1-yl)-1H-benzo[d]imidazol-2-yl)-7-((pyridin-4-ylmethyl)amino)thieno[3,2-b]pyridin-5(4H)-one]	≥ 7.30	6.30 to 7.30	≥ 7.30
C[C@@H]1CN(c2ccc3nc(-c4c(NC5CCOCC5)c5sccc5[nH]c4=O)[nH]c3c2)C[C@H](C)N1C [Example A48, 7-((tetrahydro-2H-pyran-4-yl)amino)-6-(6-(3r,5s)-rel-3,4,5-trimethylpiperazin-1-yl)-1H-benzo[d]imidazol-2-yl)thieno[3,2-b]pyridin-5(4H)-one]	≥ 7.30	≥ 7.30	≥ 7.30
CN1CCN(c2ccc3nc(-c4c(N[C@@H]5CCOC5)c5cscc5[nH]c4=O)[nH]c3c2)CC1 [Example A71, (R)-3-(6-(4-methylpiperazin-1-yl)-1H-benzo[d]imidazol-2-yl)-4-((tetrahydrofuran-3-yl)amino)thieno[3,4-b]pyridin-2(1H)-one]	≥ 7.30	≥ 7.30	≥ 7.30
C[C@@H]1CN(c2ccc3nc(-c4c(N)c5sccc5[nH]c4=O)[nH]c3c2)C[C@H](C)N1C [Example A33, 7-amino-6-(6-(3r,5s)-rel-3,4,5-trimethylpiperazin-1-yl)-1H-benzo[d]imidazol-2-yl)thieno[3,2-b]pyridin-5(4H)-one]	≥ 7.30	6.30 to 7.30	≥ 7.30
CN1CCN(c2ccc3nc(-c4c(N[C@H]5C[C@H](O)C5)c5ccsc5[nH]c4=O)[nH]c3c2)CC1 [Example A8, 4-(((1r,3r)-3-hydroxycyclobutyl)amino)-5-(6-(4-methylpiperazin-1-yl)-1H-benzo[d]imidazol-2-yl)thieno[2,3-b]pyridin-6(7H)-one]	≥ 7.30	6.30 to 7.30	≥ 7.30
CN1CCN(c2ccc3nc(-c4c(NC5CCC5)c5cscc5[nH]c4=O)[nH]c3c2)CC1 [Example A27, 4-(cyclobutylamino)-3-(6-(4-methylpiperazin-1-yl)-1H-benzo[d]imidazol-2-yl)thieno[3,4-b]pyridin-2(1H)-one]	≥ 7.30	≥ 7.30	≥ 7.30
CN1CCN(c2ccc3nc(-c4c(N[C@@H]5CCNC[C@H]5F)c5ccsc5[nH]c4=O)[nH]c3c2)CC1 [Example A14, 4-(((3R,4R)-3-fluoropiperidin-4-yl)amino)-5-(6-(4-methylpiperazin-1-yl)-1H-benzo[d]imidazol-2-yl)thieno[2,3-b]pyridin-6(7H)-one]	≥ 7.30	≥ 7.30	≥ 7.30

Further lines, results first:

pIC50 (FLT3)	pIC50 (LCK)	pIC50 (human HPK1 (MAP4K1))	SMILES
≥ 7.30	≥ 7.30	≥ 7.30	CN1CCN(c2ccc3nc(-c4c(NC5CCNCC5)c5sccc5[nH]c4=O)[nH]c3c2)CC1 [Example A39, 6-(6-(4-methylpiperazin-1-yl)-1H-benzo[d]imidazol-2-yl)-7-(piperidin-4-ylamino)thieno[3,2-b]pyridin-5(4H)-one]
≥ 7.30	≥ 7.30	≥ 7.30	CN1CCN(c2ccc3nc(-c4c(N[C@H]5CCCC[C@@H]5O)c5sccc5[nH]c4=O)[nH]c3c2)CC1 [Example A41, 7-(((1S,2S)-2-hydroxycyclohexyl)amino)-6-(6-(4-methylpiperazin-1-yl)-1H-benzo[d]imidazol-2-yl)thieno[3,2-b]pyridin-5(4H)-one]
≥ 7.30	≥ 7.30	≥ 7.30	CN1CCN(c2ccc3nc(-c4c(NC5CCOCC5)c5sccc5[nH]c4=O)[nH]c3c2)CC1 [Example A35, 6-(6-(4-methylpiperazin-1-yl)-1H-benzo[d]imidazol-2-yl)-7-((tetrahydro-2H-pyran-4-yl)amino)thieno[3,2-b]pyridin-5(4H)-one]
≥ 7.30	≥ 7.30	≥ 7.30	CN1CCN(c2ccc3nc(-c4c(NCC5CCOCC5)c5sccc5[nH]c4=O)[nH]c3c2)CC1 [Example A38, 6-(6-(4-methylpiperazin-1-yl)-1H-benzo[d]imidazol-2-yl)-7-(((tetrahydro-2H-pyran-4-yl)methyl)amino)thieno[3,2-b]pyridin-5(4H)-one]
≥ 7.30	≥ 7.30	≥ 7.30	CN1CCN(c2ccc3nc(-c4c(N[C@H]5CCC[C@@H]5O)c5sccc5[nH]c4=O)[nH]c3c2)CC1 [Example A42, 7-(((1S,2S)-2-hydroxycyclopentyl)amino)-6-(6-(4-methylpiperazin-1-yl)-1H-benzo[d]imidazol-2-yl)thieno[3,2-b]pyridin-5(4H)-one]
≥ 7.30	≥ 7.30	≥ 7.30	CN1CCN(c2ccc3nc(-c4c(N[C@H]5CC[C@@H](O)CC5)c5sccc5[nH]c4=O)[nH]c3c2)CC1 [Example A40, 7-(((1S,4S)-4-hydroxycyclohexyl)amino)-6-(6-(4-methylpiperazin-1-yl)-1H-benzo[d]imidazol-2-yl)thieno-[3,2-b]pyridin-5(4H)-one]
≥ 7.30	≥ 7.30	≥ 7.30	CN1CCN(c2ccc3nc(-c4c(N[C@H]5CCC[C@@H]5O)c5ccsc5[nH]c4=O)[nH]c3c2)CC1 [Example A66, 4-(((1S,2S)-2-hydroxycyclopentyl)amino)-5-(6-(4-methylpiperazin-1-yl)-1H-benzo[d]imidazol-2-yl)thieno[2,3-b]pyridin-6(7H)-one]

— patent publication US11059832B2, “HPK1 inhibitors and methods of using same” (University Health Network, priority 2015, dated 2021)
